Publication PMC7515829, “HKDC1 C-terminal based peptides inhibit extranodal natural killer/T-cell lymphoma by modulation of mitochondrial function and EBV suppression” (Leukemia, 2020)

What was measured:
Namalwa = assay: Cell death IC50 by PI staining/FACS; format: cell-based; settings: Human Burkitt’s lymphoma/EBV(+), 0.1–15 µM, 6 h (suspension) or 12 h (adherent cells), mean ± SEM, read-out: Peptide IC50 (µM), cell death, Namalwa
Experimental: (§1) Measurement of apoptosis and cell death. Apoptosis was evaluated by TUNEL assay using the In Situ Cell Death Detection Kit™ (Roche). Cells were fixed in 4% paraformaldehyde and labeled with TUNEL reagents. Stained cells were photographed by a fluorescence microscope (11). For cell death analysis, the propidium iodide (PI) staining was performed by addition of 6.25 µg/ml of PI to the cells, and cell death was immediately evaluated by FACS analysis (3).

Healthy MNCs = assay: Cell death IC50 by PI staining/FACS; format: cell-based; settings: Healthy human mononuclear cells/EBV(−), 0.1–15 µM, 6 h (suspension) or 12 h (adherent cells), mean ± SEM, read-out: Peptide IC50 (µM), cell death, Healthy MNCs
Experimental: as §1

SW620 = assay: Cell death IC50 by PI staining/FACS; format: cell-based; settings: Human colorectal adenocarcinoma/EBV(−), 0.1–15 µM, 6 h (suspension) or 12 h (adherent cells), mean ± SEM, read-out: Peptide IC50 (µM), cell death, SW620
Experimental: as §1

HMECs = assay: Cell death IC50 by PI staining/FACS; format: cell-based; settings: Human mammary epithelial cells/EBV(−), 0.1–15 µM, 6 h (suspension) or 12 h (adherent cells), mean ± SEM, read-out: Peptide IC50 (µM), cell death, HMECs
Experimental: as §1

SW480 = assay: Cell death IC50 by PI staining/FACS; format: cell-based; settings: Human colorectal adenocarcinoma/EBV(−), 0.1–15 µM, 6 h (suspension) or 12 h (adherent cells), mean ± SEM, read-out: Peptide IC50 (µM), cell death, SW480
Experimental: as §1

U266B1 = assay: Cell death IC50 by PI staining/FACS; format: cell-based; settings: Human B lymphoblast/EBV(−), 0.1–15 µM, 6 h (suspension) or 12 h (adherent cells), mean ± SEM, read-out: Peptide IC50 (µM), cell death, U266B1
Experimental: as §1

THP1 = assay: Cell death IC50 by PI staining/FACS; format: cell-based; settings: Human monocytic leukemia/EBV(−), 0.1–15 µM, 6 h (suspension) or 12 h (adherent cells), mean ± SEM, read-out: Peptide IC50 (µM), cell death, THP1
Experimental: as §1

HepG2 = assay: Cell death IC50 by PI staining/FACS; format: cell-based; settings: Human hepatocellular carcinoma/EBV(−), 0.1–15 µM, 6 h (suspension) or 12 h (adherent cells), mean ± SEM, read-out: Peptide IC50 (µM), cell death, HepG2
Experimental: as §1

NK92 = assay: Cell death IC50 by PI staining/FACS; format: cell-based; settings: Human natural killer non-Hodgkin’s lymphoma/EBV(−), 0.1–15 µM, 6 h (suspension) or 12 h (adherent cells), mean ± SEM, read-out: Peptide IC50 (µM), cell death, NK92
Experimental: as §1

SNT8 = assay: Cell death IC50 by PI staining/FACS; format: cell-based; settings: Human natural killer/T-cell lymphoma/EBV(+), 0.1–15 µM, 6 h (suspension) or 12 h (adherent cells), mean ± SEM, read-out: Peptide IC50 (µM), cell death, SNT8
Experimental: as §1

HANK1 = assay: Cell death IC50 by PI staining/FACS; format: cell-based; settings: Human natural killer/T-cell lymphoma/EBV(+), 0.1–15 µM, 6 h (suspension) or 12 h (adherent cells), mean ± SEM, read-out: Peptide IC50 (µM), cell death, HANK1
Experimental: as §1

Hela = assay: Cell death IC50 by PI staining/FACS; format: cell-based; settings: Human cervix adenocarcinoma/EBV(−), 0.1–15 µM, 6 h (suspension) or 12 h (adherent cells), mean ± SEM, read-out: Peptide IC50 (µM), cell death, Hela
Experimental: as §1

MCF7 = assay: Cell death IC50 by PI staining/FACS; format: cell-based; settings: Human breast adenocarcinoma/EBV(−), 0.1–15 µM, 6 h (suspension) or 12 h (adherent cells), mean ± SEM, read-out: Peptide IC50 (µM), cell death, MCF7
Experimental: as §1

MDA-MB-231 = assay: Cell death IC50 by PI staining/FACS; format: cell-based; settings: Human breast adenocarcinoma/EBV(−), 0.1–15 µM, 6 h (suspension) or 12 h (adherent cells), mean ± SEM, read-out: Peptide IC50 (µM), cell death, MDA-MB-231
Experimental: as §1

HL-60 = assay: Cell death IC50 by PI staining/FACS; format: cell-based; settings: Human acute promyelocytic leukemia/EBV(−), 0.1–15 µM, 6 h (suspension) or 12 h (adherent cells), mean ± SEM, read-out: Peptide IC50 (µM), cell death, HL-60
Experimental: as §1

MM.1R = assay: Cell death IC50 by PI staining/FACS; format: cell-based; settings: Human B lymphoblast/EBV(−), 0.1–15 µM, 6 h (suspension) or 12 h (adherent cells), mean ± SEM, read-out: Peptide IC50 (µM), cell death, MM.1R
Experimental: as §1

BZLF1 = assay: mRNA level by qPCR in SNK6 cells; format: cell-based, EBV; settings: 0.5 µM peptide, 6 h, vs CTL, n = 4 (Fig. 3f)
Experimental: (§2) Fig. 3 Peptide for the last eight aa of HKDC1 at the C-terminal (Tf-D-HKC8) inhibits EBV replication and P-gp expression through ROS generation and DNA damage in ENKTL cells. SNK6 cells were treated with control (CTL), Tf-D-HKN15, Tf-D-HKC15, or Tf-D-HKC8 peptide (0.5 µM) for 6 h and the cells were used for biomedical analysis. a ROS formation, n = 5. b 3-nitrotyrosine (3-NT) formation, n = 5. c 8-OHdG formation, n = 5. d Quantitation of γH2AX formation, n = 5. e Representative western blotting bands for d. f mRNA level by qPCR for BZLF1, BMRF1, and ABCB1, n = 4. g Protein quantitation for Zta, EA-D, and P-gp, n = 5. h Representative pictures of western blots for g. i EBV viral genomes/cell by qPCR, n = 4. *P < 0.05, vs CTL group; ^¶P < 0.05, vs Tf-D-HKC15 group. Results were expressed as mean ± SEM.

BMRF1 = assay: mRNA level by qPCR in SNK6 cells; format: cell-based, EBV; settings: 0.5 µM peptide, 6 h, vs CTL, n = 4 (Fig. 3f)
Experimental: as §2

SNK6 cells = assay: Apoptosis rate by TUNEL assay; format: cell-based, human; settings: 0.5 µM peptide, 6 h, compared with CTL group, n = 5 (Fig. 4h)
Experimental: as §1

Row | Substance | IC50 (Namalwa) [µM] | IC50 (Healthy MNCs) [µM] | IC50 (SW620) [µM] | IC50 (HMECs) [µM] | IC50 (SW480) [µM] | IC50 (U266B1) [µM] | IC50 (THP1) [µM] | IC50 (HepG2) [µM] | IC50 (NK92) [µM] | IC50 (SNT8) [µM] | IC50 (HANK1) [µM] | IC50 (Hela) [µM] | IC50 (MCF7) [µM] | IC50 (MDA-MB-231) [µM] | IC50 (HL-60) [µM] | IC50 (MM.1R) [µM] | BZLF1 mRNA (BZLF1) [%] | BMRF1 mRNA (BMRF1) [%] | apoptosis rate increase (SNK6 cells) [fold]
1 | HAIYPRH-ITAVAKRLQQAQKEN [Tf-D-HKC15] | 0.9 ± 0.3 | > 15 | 12.5 ± 0.8 | > 15 | 8.9 ± 0.9 | 2.2 ± 0.6 | 2.3 ± 0.5 | > 15 | 1.5 ± 0.6 | 1.1 ± 0.4 | 1.4 ± 0.6 | 9.8 ± 0.6 | > 15 | 14.4 ± 0.8 | 2.2 ± 0.6 | 2.3 ± 0.7 | 47 | 65 | 2.91
2 | HAIYPRH-LQQAQKEN [Tf-D-HKC8] | 0.7 ± 0.4 | > 15 | 10.2 ± 0.7 | > 15 | 6.7 ± 0.8 | 1.4 ± 0.3 | 1.8 ± 0.6 | > 15 | 0.9 ± 0.4 | 0.6 ± 0.3 | 0.7 ± 0.4 | 6.8 ± 0.9 | > 15 | 11.6 ± 1.1 | 1.7 ± 0.4 | 1.6 ± 0.4 | 21 | 31 | 11.4
